Measured values as given in patent publication US20200281989A1, “METHOD OF PREPARING A COMPOSITION FOR TREATING CANCER” (priority 2019, published 2020).

What was measured:
[1] = tested on: human leukemia K562 cells; test: WST-1 cell proliferation assay, K562 leukemia cells; assay type: cell-based; details: for anti-proliferative effect on leukemic K562 cells: WST-1, FIGS. 3B, 4A
Procedure: The graphs show results of different concentrations of the compounds using the WST-1 spectrophotometric detection assay. WST is a colorimetric assay to assess cell proliferation under different treatment conditions. This assay is based on the cleavage of a tetrazolium salt (2-(4-Iodophenyl)-3-(4-nitrophenyl)-5-phenyl-2h-tetrazolium chloride) to form formazan (a colored compound) by mitochondrial dehydrogenases in viable cells. As a result, the assay measures the net metabolic activity of the cells. Human leukemia K562 cell line was purchased from ATCC (Manassas, Va., USA) and plated a day before the experiment in normal growth medium. The next day, the medium was replaced with serum free medium (Gibco #11835-030) to starve the cells for 4 h. Cells were deprived of serum for 4 h before treatment with the lipids to eliminate binding of the compounds to serum proteins. After starvation, K562 cells were then centrifuged. The medium was replaced with fresh IMDM media containing 1% (v/v) FBS and 100 units of PS. Cells (1×104 in 100 L) were seeded into each well with conditioned medium for overnight (20 h) in a 96-well plate to which the test compounds (−ve control ethanol, Ft-3, F-6 and S5) were added at the concentrations indicated. A volume of 10 uL WST-1, cell proliferation assay reagent (Roche Diagnostics, Indianapolis, Ind., USA), was added to each well and incubated for 4 h, and then the wells were read on a plate reader at 450 nm with a reference reading at 650 nm. Reference reading at 650 nm was used for subtracting background readouts.
Another embodiment of the anti-cancer oral composition was prepared by combining lipid Fraction 3 of the neutral lipid fraction and ethanol in a ratio of 20 μg/μL to provide a mixture. The mixture was prepared by dissolving Fraction 3 in pure ethanol then diluting it to the desired concentration with culture medium. Cells (1×10^4) were starved overnight in serum-free medium, then the medium was replaced prior to incubation with IMDM/1% FBS/pen-strep. […]

Capan2 cells = test: Proliferation of Capan2 pancreatic cancer cells; assay type: cell-based, human; details: F6 5-50 μg/ml for 72 hours, FIG. 18A
breast MCF-7 cells = test: WST-1 cell proliferation assay, MCF-7 breast cancer cells; assay type: cell-based, human; details: WST-1, FIG. 4B
Procedure: FIG. 4B is a graph showing the effect of fraction 3 of the neutral lipids, furan (F6), and a steroid found in fraction 3 of the neutral lipids, (S5) and the two isolated components from fraction 3 of the neutral lipids on breast MCF-7 cells using the WST-1 spectrophotometric detection assay. WST was performed to assess cell proliferation under different treatment conditions. The assay measured the net metabolic activity of the cells. Human breast MCF-7 cell line was purchased from ATCC (Manassas, Va., USA). 1×10^4 cells/well/100 L) and were plated a day before experiment in normal growth medium. The next day, the medium was replaced with serum free medium (Gibco #11835-030) to starve the cells for 4 h. Cells were deprived of serum for 4 h before treatment with the lipids to eliminate binding of the compounds to serum proteins. After starvation, the medium was replaced with fresh IMDM media containing 1% (v/v) FBS and 100 units of PS. Cells (1×104 in 100 L) were seeded into each well with conditioned medium overnight (20 h) in a 96-well plate to which the test compounds (−ve control ethanol, Fr-3 of the neutral lipids, F6 and S5) were added at the concentrations indicated. […] Then, the wells were read on a plate reader at 450 nm with a reference reading at 650 nm. Reference reading at 650 nm was used for subtracting background readouts.

Hep3B cells = test: Invasion chamber (transwell) assay / metastatic potential, Hep3B cells; assay type: cell-based, human; details: FIGS. 17A-17E
Procedure: (§1) Another embodiment of the anti-cancer oral composition was prepared by combining lipid Fraction 1 with ethanol to provide a first mixture in a ratio of 5 μg/mL, a second mixture in a ratio of 10 μg/mL, and a third mixture in a ratio of 25 μg/mL. The mixtures and a control (0.1% ethanol) were tested for inhibition of metastatic potential of cancer Hep3B cell line (FIGS. 13A-13E) and cancer Panc-1 cell line (FIGS. 13F-131).
(§2) An aliquot of 0.5 ml Hep3B or Panc-1 cell suspension in serum-free medium with BSA (1 mg/ml) containing 6×10^4 cells/ml was mixed with F6 and then applied to each invasion chamber. An aliquot of 0.5 ml medium with 10% serum was loaded into the bottom of the well. After incubation for 6 hours, cells that invaded to the bottom surface of the transwell were fixed with 70% ethanol, stained with Diff Quik solution (Sysmex), and counted in five selected fields.

Panc-1 cells [2] = test: Apoptosis induction (cell cycle, caspase-3), pancreatic cancer cells; assay type: cell-based, human; details: FIGS. 18A-18F
[3] = tested on: human pancreatic cancer cells (Panc-1 cells); test: Cell growth inhibition, Panc-1 pancreatic cancer cells; assay type: cell-based; details: F6 5-50 μg/ml for 72 hours, FIG. 18A
BxPC3 cells = test: Proliferation of BxPC3 pancreatic cancer cells; assay type: cell-based, human; details: F6 5-50 μg/ml for 72 hours, FIG. 18A
[4] = tested on: human breast cancer cells MDA MB-231; test: WST-1 cell proliferation assay, MDA MB-231 breast cancer cells; assay type: cell-based; details: WST-1, FIG. 4C
Procedure: FIG. 4C is a graph showing the effect of fraction 3 of the neutral lipids, furan (F6), and a steroid (S5) on human breast cancer cells MDA MB-231 using the WST-1 spectrophotometric detection assay. The assay measured the net metabolic activity of the cells. Human breast MDA MB-231 cell line was purchased from ATCC (Manassas, Va., USA). MCF-7 and 1_x 10^4 cells/well/100 uL) and were plated a day before experiment in normal growth medium. The next day, medium was replaced with serum free medium (Gibco #11835-030) to starve the cells for 4 h. Cells were deprived of serum for 4 h before treatment with the lipids to eliminate binding of the compounds to serum proteins. After starvation, Cells (1_x 104 in 100 L) were seeded into each well with conditioned medium overnight (20 h) in a 96-well plate to which the test compounds (−ve control ethanol, Ft-3, F-6 and S5) were added at the concentrations indicated. A volume of 10 uL WST-1, cell proliferation assay reagent (Roche Diagnostics, Indianapolis, Ind., USA), was added to each well and incubated for 4 h. Then, the wells were read on a plate reader at 450 nm with a reference reading at 650 nm. Reference reading at 650 nm was used for subtracting background readouts.

Panc-1 cells [5] = test: Invasion chamber (transwell) assay, Panc-1 cells; assay type: cell-based, human; details: concentration dependent, 6 hours incubation, FIGS. 19A-19B
Procedure: as §1, §2

SMILES	anti-proliferative effect on leukemic K562 cells [1]	inhibition of proliferation of Capan2 cells (Capan2 cells)	anti-proliferative effect on breast MCF-7 cells (breast MCF-7 cells)	Hep3B cell metastasis (markers migration and invasion) (Hep3B cells)	mechanism of regulation of pancreatic cancer cell growth (Panc-1 cells [2])	inhibition of proliferation of Panc-1 cells [3]	inhibition of proliferation of BxPC3 cells (BxPC3 cells)	anti-proliferative effect on breast MDA MB-231 cells [4]	invasion of Panc-1 cells (Panc-1 cells [5])	effect of combination of Fraction 3 and Gleevec on K562 cell survival ([1]; Gleevec 2 uM with Fraction 3, WST-1, FIG. 3B)
CCCCCc1oc(CCCCCCCCCCC(=O)O)c(C)c1C [Fraction F6, 12,15-epoxy-13,14-dimethyleicosa-12,14-dienoic acid]	anti-proliferative effects	potently inhibited proliferation	anti-proliferative effects	inhibit cancer Hep3B cell metastasis	induction of apoptosis	potently inhibited proliferation	potently inhibited proliferation	anti-proliferative effects	inhibited invasion	–
CC(C)CCC[C@@H](C)[C@H]1CC[C@H]2[C@@H]3CC=C4C=CCC[C@]4(C)[C@H]3CC[C@]12C [Fraction S5, cholesta-3,5-diene]	anti-proliferative effects	–	anti-proliferative effects	inhibit cancer Hep3B cell metastasis	–	–	–	anti-proliferative effects	–	–
Cc1ccc(NC(=O)c2ccc(CN3CCN(C)CC3)cc2)cc1Nc1nccc(-c2cccnc2)n1 [Gleevec, reference compound]	–	–	–	–	–	–	–	–	–	potentiated the anti-proliferative effect
